Structures can show the parent of a compound that is named as a salt. Where only a bound is given, the exact number is not on record here.

The target of this assay is T1, Nav1.7 (or SCN9A) channel (Homo sapiens, UniProt Q15858).
T1 construct: expressed in transfected cells
T1 sequence (Q15858 whole entry): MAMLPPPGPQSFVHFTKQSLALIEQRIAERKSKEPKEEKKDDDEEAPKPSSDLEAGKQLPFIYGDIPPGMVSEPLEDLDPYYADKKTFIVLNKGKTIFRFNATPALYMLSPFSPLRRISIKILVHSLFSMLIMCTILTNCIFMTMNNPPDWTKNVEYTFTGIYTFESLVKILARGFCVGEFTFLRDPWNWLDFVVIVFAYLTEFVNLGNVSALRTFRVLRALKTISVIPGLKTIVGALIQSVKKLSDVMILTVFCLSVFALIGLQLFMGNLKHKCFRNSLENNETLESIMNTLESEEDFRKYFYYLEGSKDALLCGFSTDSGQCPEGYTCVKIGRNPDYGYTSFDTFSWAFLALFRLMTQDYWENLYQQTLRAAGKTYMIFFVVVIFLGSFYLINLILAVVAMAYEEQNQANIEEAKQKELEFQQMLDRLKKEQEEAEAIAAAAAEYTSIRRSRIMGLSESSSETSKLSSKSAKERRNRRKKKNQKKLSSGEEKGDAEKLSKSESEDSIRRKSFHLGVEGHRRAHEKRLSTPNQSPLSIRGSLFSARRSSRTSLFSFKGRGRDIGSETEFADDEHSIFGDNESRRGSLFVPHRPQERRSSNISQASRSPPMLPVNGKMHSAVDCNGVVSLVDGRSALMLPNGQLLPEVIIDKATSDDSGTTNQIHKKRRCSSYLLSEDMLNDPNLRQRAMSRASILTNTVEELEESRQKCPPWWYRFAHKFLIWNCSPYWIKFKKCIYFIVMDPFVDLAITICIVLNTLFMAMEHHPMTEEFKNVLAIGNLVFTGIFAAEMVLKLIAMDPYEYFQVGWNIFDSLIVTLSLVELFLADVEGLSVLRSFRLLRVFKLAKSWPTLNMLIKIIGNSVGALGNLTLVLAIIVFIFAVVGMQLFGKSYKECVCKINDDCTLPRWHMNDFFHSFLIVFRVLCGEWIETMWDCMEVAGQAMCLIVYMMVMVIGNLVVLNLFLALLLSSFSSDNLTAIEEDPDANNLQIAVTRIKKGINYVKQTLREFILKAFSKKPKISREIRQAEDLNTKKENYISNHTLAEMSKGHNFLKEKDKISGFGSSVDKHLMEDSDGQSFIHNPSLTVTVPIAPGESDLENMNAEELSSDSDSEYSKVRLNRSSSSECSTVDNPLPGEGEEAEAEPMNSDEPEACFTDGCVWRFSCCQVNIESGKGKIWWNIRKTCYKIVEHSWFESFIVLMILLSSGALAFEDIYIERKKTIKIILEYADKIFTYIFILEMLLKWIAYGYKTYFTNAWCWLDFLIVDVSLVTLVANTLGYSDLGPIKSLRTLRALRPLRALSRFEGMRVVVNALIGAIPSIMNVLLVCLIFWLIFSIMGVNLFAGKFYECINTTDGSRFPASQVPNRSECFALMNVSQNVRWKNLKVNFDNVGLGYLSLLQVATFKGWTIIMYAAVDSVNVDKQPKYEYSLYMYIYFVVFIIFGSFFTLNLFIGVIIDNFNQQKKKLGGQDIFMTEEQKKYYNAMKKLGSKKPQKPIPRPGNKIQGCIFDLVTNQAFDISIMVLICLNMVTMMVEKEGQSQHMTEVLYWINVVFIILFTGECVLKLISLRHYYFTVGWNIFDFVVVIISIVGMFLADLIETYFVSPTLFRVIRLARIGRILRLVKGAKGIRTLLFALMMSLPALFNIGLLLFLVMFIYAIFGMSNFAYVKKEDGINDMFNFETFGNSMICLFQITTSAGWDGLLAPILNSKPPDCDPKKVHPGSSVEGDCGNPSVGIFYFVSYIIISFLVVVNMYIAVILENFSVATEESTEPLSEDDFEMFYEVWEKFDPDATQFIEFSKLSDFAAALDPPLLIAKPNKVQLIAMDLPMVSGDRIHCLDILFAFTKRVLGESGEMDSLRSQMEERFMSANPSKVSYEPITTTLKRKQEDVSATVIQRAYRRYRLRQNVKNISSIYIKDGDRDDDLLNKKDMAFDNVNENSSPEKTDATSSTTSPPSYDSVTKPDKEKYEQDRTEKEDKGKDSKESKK
As to the kind of experiment: Nav1.7 (hSCN9A) PatchXpress electrophysiology assay. In kind it is cell-based. To be noted: estimated IC50 from single point electrophysiology data; PatchXpress platform; HEK cells expressing hSCN9A, held at V1/2 of inactivation; read-out: Nav1.7 EIC50. Here is the method: The ability of the compounds of formula (I) to block the Nav1.7 (or SCN9A) channel were measured using the assay described below.
Human Embryonic Kidney (HEK) cells were transfected with an hSCN9A construct using lipofectamine reagent (Invitrogen), using standard techniques. Cells stably expressing the hSCN9A constructs were identified by their resistance to G-418 (400 μg/ml). Clones were screened for expression using the whole-cell voltage-clamp technique.
HEK cells stably transfected with hSCN9A were maintained in DMEM medium supplemented with 10% heat-inactivated fetal bovine serum and 400 μg/ml G-418 in an incubator at 37° C. with a humidified atmosphere of 10% CO2. For HTS, cells were harvested from flasks by trypsinization and replated in an appropriate multi-well plate (typically 96 or 384 wells/plate) such that confluence would be achieved within 24 hours of plating. For electrophysiological studies, cells were removed from the culture flask by brief trypsinization and re-plated at low density onto glass cover slips. Cells were typically used for electrophysiological experiments within 24 to 72 hours after plating.
Cover slips containing HEK cells expressing hSCN9A were placed in a bath on the stage of an inverted microscope and perfused (approximately 1 ml/minutes) with extracellular solution of the following composition: 138 mM NaCl, 2 mM CaCl2, 5.4 mM KCl, 1mM MgCl2, 10 mM glucose, and 10 mM HEPES, pH 7.4, with NaOH. […] The osmolarity of the extracellular and intracellular solutions was 300 mOsm/kg and 295 mOsm/kg, respectively. All recordings were made at room temperature (22-24° C.) using AXOPATCH 200B amplifiers and PCLAMP software (Axon Instruments, Burlingame, Calif.).
hSCN9A currents in HEK cells were measured using the whole-cell configuration of the patch-clamp technique (Hamill et al., 1981). Uncompensated series resistance was typically 2 to 5 mega ohms and >85% series resistance compensation was routinely achieved. As a result, voltage errors were negligible and no correction was applied. Current records were acquired at 20 to 50 KHz and filtered at 5 to 10 KHz.
HEK cells stably transfected with hSCN9A were viewed under Hoffman contrast optics and placed in front of an array of flow pipes emitting either control or compound-containing extracellular solutions. All compounds were dissolved in dimethyl sulfoxide to make 10 mM stock solutions, which were then diluted into extracellular solution to attain the final concentrations desired. […] The voltage-dependence of inactivation was determined by applying a series of depolarizing prepulses (8 sec long in 10 mV increments) from a negative holding potential. The voltage was then immediately stepped to 0 mV to assess the magnitude of the sodium current. Currents elicited at 0 mV were plotted as a function of prepulse potential to allow estimation of the voltage at which 50% of the channels were inactivated (midpoint of inactivation or V1/2). Compounds were tested for their ability to inhibit hSCN9A sodium channels by activating the channel with a 20 msec voltage step to 0 mV following an 8 second conditioning prepulse to the empirically determined V1/2. Compound effect (% inhibition) was determined by difference in current amplitude before and after application of test compounds. For ease of comparison, “estimated IC-50” (EIC50) values were calculated from single point electrophysiology data by the following equation, (tested concentration, uM)×(100-% inhibition/% inhibition). Inhibition values <20% and >80% were excluded from the calculation.
Electrophysiological assays were conducted with PatchXpress 7000 hardware and associated software (Molecular Devices Corp). All assay buffers and solutions were identical to those used in conventional whole-cell voltage clamp experiments described above. hSCN9A cells were grown as above to 50%-80% confluency and harvested by trypsinization. […]
With `CN(C)S(=O)(=O)NC(=O)c1ccc(Oc2ccc(Cl)c(C(F)(F)F)c2)cc1` [Example 1, 4-[4-Chloro-3-(trifluoromethyl)phenoxy]-N-[(dimethylamino)sulfonyl]benzamide diethylamine salt], the IC50 is 2600 nM.
For the molecule `CC(C)COc1ncc(Oc2cc(F)c(C(=O)NS(=O)(=O)N(C)C)cc2F)cc1Cl` [Example 2, 4-[(5-Chloro-6-isobutoxvpvridin-3yl)oxy]-N-[(dimethylamino)sulfonyl]2,5-difluorobenzamide diethylamine salt], the IC50 was 130 nM.
As to `CNS(=O)(=O)NC(=O)c1ccc(Oc2ccc(Cl)c(C(F)(F)F)c2)cc1` [Example 3, 4-[4-chloro-3-(trifluoromethyl)phenoxy]-N-[(methylamino)sulfonyl]benzamide diethylamine salt], the IC50 was 4800 nM.
The same measure for `COc1cc(Cl)ccc1Oc1ccc(C(=O)NS(N)(=O)=O)cc1` [Example 4, N-(aminosulfonyl)-4-(4-chloro-2-methoxyphenoxy)benzamide]: over 3000 nM; for `COc1cc(Cl)ccc1Oc1ccc(C(=O)NS(=O)(=O)N(C)C)cc1` [Example 5, 4-(4-chloro-2-methoxyphenoxy)-N-[(dimethylamino)sulfonyl]benzamide]: 7100 nM; for `COc1cc(Cl)ccc1Oc1cc(F)c(C(=O)NS(N)(=O)=O)cc1F` [Example 6, N-(aminosulfonyl)-4-(4-chloro-2-methoxvphenoxy)-2,5-difluorobenzamide]: 7300 nM.
As to `COc1cc(Cl)ccc1Oc1cc(F)c(C(=O)NS(=O)(=O)N(C)C)cc1F` [Example 7, 4-(4-chloro-2-methoxvphenoxy)-N-[(dimethylamino)sulfonyl]-2,5-difluorobenzamide], the IC50 was over 3000 nM.
`COc1ccccc1Oc1ccc(C(=O)NS(=O)(=O)N(C)C)cc1` [Example 8, N-[(dimethylamino)sulfonyl]-4-(2-methoxyphenoxy)benzamide diethylamine salt]: the IC50 is over 30000 nM.
The result for `COc1cccc(Oc2ccc(C(=O)NS(=O)(=O)N(C)C)cc2)c1` [Example 9, N-[(dimethylamino)sulfonyl[-4-(3-methoxyphenoxy)benzamidediethylamine salt] reads over 30000 nM; that for `CC(C)COc1ncc(Oc2ccc(C(=O)NS(N)(=O)=O)cc2)cc1Cl` [Example 10, N-(aminosulfonyl)-4-[(5-chloro-6-isobutoxypyridin-3-yl)oxy]benzamide diethylamine salt], 6300 nM; that for `CC(C)COc1ncc(Oc2ccc(C(=O)NS(=O)(=O)N(C)C)cc2)cc1Cl` [Example 11, 4-[(5-chloro-6-isobutoxypyridin-3-yl)oxy]-N-[(dimethylamino)sulfonyl]benzamide diethylamine salt], 2100 nM.
The result for `COc1ccccc1Oc1cc(F)c(C(=O)NS(=O)(=O)N(C)C)cc1Cl` [Example 12, 5-chloro-N-[(dimethylamino)sulfonyl]-2-fluoro-4-(2-methoxyphenoxy)benzamide diethylamine salt] reads over 1000 nM; that for `COc1ccccc1Oc1cc(F)c(C(=O)NS(=O)(=O)N(C)C)cc1F` [Example 13, N-[(dimethylamino)sulfonyl]-2,5-difluoro-4-(2-methoxyphenoxy)benzamide], over 1000 nM; that for `COc1cccc(Oc2cc(F)c(C(=O)NS(=O)(=O)N(C)C)cc2F)c1` [Example 14, N-[(dimethylamino)sulfonyl]-2,5-difluoro-4-(3-methoxyphenoxy)benzamide diethylamine salt], 7500 nM.
As for `NS(=O)(=O)NC(=O)c1ccc(Oc2ccc(Cl)cc2-c2ccnnc2)cc1` [Example 15, N-(aminosulfonyl)-4-(4-chloro-2-pyridazin-4-ylphenoxy)benzamide], the IC50 is over 3000 nM.
Take `CN(C)S(=O)(=O)NC(=O)c1ccc(Oc2ccc(Cl)cc2-c2ccnnc2)cc1` [Example 16, 4-(4-chloro-2-pyridazin-4-ylphenoxy)-N-[(dimethylamino)sulfonyl]benzamide]: the IC50 was 4900 nM.
The result for `[2H]C([2H])([2H])C([2H])(Oc1ncc(Oc2cc(F)c(C(=O)NS(=O)(=O)N(C)C)cc2F)cc1Cl)C([2H])([2H])[2H]` [Example 17, 4-[(5-chloro-6-isopropoxypyridin-3-yl)oxy]-N-[(dimethylamino)sulfonyl]-2,5-difluorobenzamide-d7] reads 200 nM.
The same measure for `N#Cc1cc(C(=O)NS(N)(=O)=O)ccc1Oc1ccccc1-c1ccccc1` [Example 18, N-(aminosulfonyl)-4-(biphenyl-2-yloxy)-3-cyanobenzamide diethylamine salt]: 34000 nM; for `CCNS(=O)(=O)NC(=O)c1ccc(Oc2ccccc2-c2ccccc2)c(C#N)c1` [Example 19, 4-(biphenyl-2-yloxy)-3-cyano-N-[(ethylamino)sulfonyl]benzamide diethylamine salt]: 10000 nM.
With `CN(C)S(=O)(=O)NC(=O)c1cc(F)c(Oc2cnc(N3CCC(F)C3)c(Cl)c2)cc1F` (stereo not drawn) [Example 20, 4-{[5-chloro-6-(3-fluoropyrrolidin-1-yl)pyridine-3-yl]oxy}-N-[(dimethylamino)sulfonyl]-2,5-difluorobenzamide formate salt], the IC50 is 1200 nM.
For `CN(C)S(=O)(=O)NC(=O)c1cc(F)c(Oc2cnc(NCC3CC3)c(Cl)c2)cc1F` [Example 21, 4-({5-chloro-6-[(cyclopropylmethyl)amino]pyridine-3-yl}oxy)-N-[(dimethylamino)sulfonyl]-2,5-difluorobenzamide formate salt], the IC50 is 600 nM.
The result for `CN(C)c1ncc(Oc2cc(F)c(C(=O)NS(=O)(=O)N(C)C)cc2F)cc1Cl` [Example 22, 4-{[5-chloro-6-(dimethylamino)pyridine-3-yl]oxy}-N-[(dimethylamino)sulfonyl]-2,5-difluorobenzamide formate salt] reads 2500 nM; that for `CN(CC1CC1)c1ncc(Oc2cc(F)c(C(=O)NS(=O)(=O)N(C)C)cc2F)cc1Cl` [Example 23, 4-({5-chloro-6-[(cyclopropylmethyl)(methyl)amino]pyridine-3-yl}oxy)-N-[(dimethylamino)sulfonyl]-2,5-difluorobenzamide formate salt], 670 nM; that for `CC(C)N(C)c1ncc(Oc2cc(F)c(C(=O)NS(=O)(=O)N(C)C)cc2F)cc1Cl` [Example 24, 4-({5-chloro-6-[isopropyl(methyl)amino]pyridine-3-yl}oxy)-N-[(dimethylamino)sulfonyl]-2,5-difluorobenzamide formate salt], 660 nM.
The same measure for `CNc1ncc(Oc2cc(F)c(C(=O)NS(=O)(=O)N(C)C)cc2F)cc1Cl` [Example 25, 4-{[5-chloro-6-(methylamino)pyridine-3-yl]oxy}-N-[(dimethylamino)sulfonyl]-2,5-difluorobenzamide formate salt]: 9800 nM; for `CN(C)S(=O)(=O)NC(=O)c1cc(F)c(Oc2cnc(N3CCCC3)c(Cl)c2)cc1F` [Example 26, 4-[(5-chloro-6-pyrrolidin-1-ylpyridin-3-yl)oxy]-N-[(dimethylamino)sulfonyl]-2,5-difluorobenzamide formate salt]: 480 nM; for `CN(C)S(=O)(=O)NC(=O)c1cc(F)c(Oc2cnc(NC34CC(C3)C4)c(Cl)c2)cc1F` [Example 28, 4-{[6-(pyridin[1.1.1]pent-1-ylamino)-5-chloropyridin-3-yl]oxy}-N-[(dimethylamino)sulfonyl]-2,5-difluorobenzamide formate salt]: 160 nM.

These data come from US20150291514A1, “N-Aminosulfonyl Benzamides” (Pfizer Limited, priority 2012, published 2015).
